For 81 compounds, RP-LC retention time results are on record in the METLIN SMRT retention time set (Domingo-Almenara et al. 2019).

The nature of the data set: gradient 5% acetonitrile 3 min, to 50% in 2 min, to 85% in 15 min, held 3 min, 100 µL/min. The conditions noted are these: column: Zorbax Extend-C18 2.1 x 50 mm; eluents: water / acetonitrile, 0.1% formic acid. An outline of the steps:
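In both positive and negative ionization mode, a quadrupole time-of-flight mass spectrometer coupled to HPLC analyzed pure standards run in mixtures of ~100 molecules. The Zorbax Extend-C18 column (2.1 × 50 mm, 1.8 μm) was operated at 100 μL/min with water and acetonitrile, each containing 0.1% formic acid. The dead volume was 40 μL and the dwell volume 900 μL. Retention time came from adduct peaks that were computationally picked and individually inspected by hand.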
For the compound `CCOc1ccccc1C(=O)N1CCC2(CC1)NC(=O)c1ccc(Cl)cc1N2`, the RP-LC retention time amounted to 790 s. To `Cc1ccccc1C(=O)Nc1cc(-c2cccs2)no1` belongs 947 s. Consider `Cc1ccc(N2CCN(C(=O)c3cn4nc(Cl)ccc4n3)CC2)cc1`, for which the RP-LC retention time amounted to 823 s. On to `Cc1ccc(-c2cn3c(CC(=O)NCCc4ccc(Cl)cc4)csc3n2)cc1C`, for which the RP-LC retention time was determined as 734 s. Turning to `O=C(NC1CC1)c1ccc(OCC2CCN(C(=O)c3ccc(Br)o3)CC2)cc1`, the RP-LC retention time worked out at 830 s. `Cc1nc(-c2cn(C)c3ncccc23)sc1C(=O)Nc1cc(F)cc(F)c1` came in with an RP-LC retention time of 1050 s.

For the compound `c1cc2c(cc1-c1nnc(C3CCCC3)o1)OCO2`, the RP-LC retention time worked out at 944 s.

As for `Cc1ccc(-c2ncccc2CNS(=O)(=O)c2ccc(F)c(F)c2)cc1`, the RP-LC retention time turned out to be 738 s. With `O=C(Cn1cccn1)Nc1nc(-c2cccnc2)cs1`, the RP-LC retention time was found to be 537 s. For `Cc1ccc(C)c(S(=O)(=O)N2CCC(c3nc(C(=O)N4CCOCC4)c(C)o3)CC2)c1`, the RP-LC retention time stood at 891 s. In turn, `CCN1CCCn2cc(S(=O)(=O)NCc3ccc(Cl)cc3)cc2C1=O` returned an RP-LC retention time of 767 s. `CNC(=O)CN1CCC(Oc2cc3c(Nc4cccc(Cl)c4F)ncnc3cc2OC)CC1`: the RP-LC retention time turned out to be 610 s. With `Cc1nc(-c2csc(S(=O)(=O)N3CCC(C(=O)N4c5ccccc5CC4C)CC3)c2)no1` (stereo unspecified), the RP-LC retention time is 1050 s.

Regarding `CCCN(CC1CCOC1)C(=O)c1ccccc1Cl` (stereo unspecified), the RP-LC retention time stood at 788 s. In turn, `Cc1ccc(Nc2c(-c3c(F)cccc3Cl)nc3ccc(Br)cn23)cc1` returned an RP-LC retention time of 985 s.

In the case of `CN1c2cc(C(=O)NC3CCCCC3)ccc2C(=O)N2CCCCC21` (stereo unspecified), the RP-LC retention time turned out to be 824 s. With `CN1C(=O)c2cc(C(=O)NCc3ccccc3F)nn2CC1(C)C(=O)NCc1ccccc1` (stereo unspecified), the RP-LC retention time was found to be 697 s. With `Cc1cc(C)n(-c2nc(C)c(C(=O)Nc3cccc(C(F)(F)F)c3)s2)n1`, the RP-LC retention time came out at 1260 s. As for `Cc1cc(Cl)ccc1S(=O)(=O)N1CC(c2nc(Cc3ccccc3)no2)C1`, the RP-LC retention time stood at 1140 s. `Cc1c(C)n(-c2ccc(Cl)cc2)c2ncn(CC(=O)NC3CCCCC3)c(=O)c12`: the RP-LC retention time was 644 s. Turning to `CC(=O)Nc1cccc(Oc2nc(C)nc3sc4c(c23)CCCC4)c1`, the RP-LC retention time turned out to be 913 s. In turn, `Cc1ccc(S(=O)(=O)c2cnc(N3CCN(c4cc(C)ccc4C)CC3)nc2N)cc1` displayed an RP-LC retention time of 1310 s.

In the case of `O=C(COc1ccccc1F)NCC1CCN(S(=O)(=O)C2CC2)CC1`, the RP-LC retention time worked out at 712 s. Then `CCCSCCCNC(=O)C1CCCN(c2nc3ccccc3n(Cc3ccccc3)c2=O)C1` (stereo unspecified), with 1200 s; and `Cc1ccc(CNC(=O)c2cccn2Cc2noc(C)n2)cc1`, with 828 s. `COc1ccc(CNC(=O)C2(C)CCN(C(=O)Nc3cccc(SC)c3)CC2)cc1`: the RP-LC retention time amounted to 845 s. In turn, `CCCC(NC(=O)Cc1ccccc1Cl)C(=O)Nc1nc2ccccc2[nH]1` (stereo unspecified) registered an RP-LC retention time of 713 s. Take `O=C(NCCCn1cccc1)c1ccc(F)c(F)c1`: the RP-LC retention time came out at 791 s.

As to `COC(=O)C1=CN(c2ccc(F)cc2C)c2cc(F)ccc2S1(=O)=O`, the RP-LC retention time turned out to be 895 s. `Cc1ccccc1-c1nc2nc(C)c(CC(=O)N3CCCC3)c(C)n2n1` showed an RP-LC retention time of 735 s. The compound `COC(=O)C1CCN(S(=O)(=O)c2cc3c4c(c2)CCC(=O)N4CCC3)CC1` had an RP-LC retention time of 724 s. Compound `CC(C)c1noc(C2CCCCN2Cc2cc(F)cc(F)c2)n1` (stereo unspecified) had an RP-LC retention time of 1170 s. Consider `CCc1nc(-c2csc(S(=O)(=O)N3CCCC(C(=O)Nc4ccccc4OC)C3)c2)no1` (stereo unspecified), for which the RP-LC retention time was found to be 1060 s. Regarding `Cc1ccccc1CSc1nnc2c(S(=O)(=O)N3CCCC3)cccn12`, the RP-LC retention time amounted to 861 s. As for `O=C(CN1CCc2ccccc2C1C(=O)N1CCCC1)NCc1cccc(C(F)(F)F)c1` (stereo unspecified), the RP-LC retention time is 838 s. In turn, `CCNC(=O)c1sc(Nc2cccc(C)n2)nc1C` came in with an RP-LC retention time of 657 s. Then `Cc1ccc(C(=O)N2[C@H]3CC[C@@H]2c2cnc(-c4ccc(F)cc4)nc2C3)cn1`, with 735 s; and `CC1CCN(C(=O)C2CCc3sc(C(=O)N(C)C)cc3C2)CC1` (stereo unspecified), with 717 s; and `CSc1ccccc1NC(=O)c1cc2ncc(Br)cn2n1`, with 1020 s. As to `CCn1c(=O)c2ccccc2n(Cc2nc(-c3cc(OC)cc(OC)c3)no2)c1=O`, the RP-LC retention time came out at 1000 s. In turn, `CN1CCN(CCCNc2nnc(-c3nc(-c4ccc(F)cc4)no3)c3ccccc23)CC1` gave an RP-LC retention time of 575 s. The compound `O=C(NC1CCCC1)c1cccnc1N1CCSCC1` yielded an RP-LC retention time of 735 s. On to `COC(=O)CC1=CC(SCC(=O)N2CCN(c3ccccc3)CC2)=Nc2ccccc2N1`, for which the RP-LC retention time turned out to be 1080 s.

For the compound `CCOc1ccc(C2C3=C(CCCC3=O)Nc3c2c(=O)n(C)c(=O)n3C)cc1OC` (stereo unspecified), the RP-LC retention time is 806 s. As to `Cc1ccc(C)c(CS(=O)(=O)N2CCC(CN3CCCC(C)C3)CC2)c1` (stereo unspecified), the RP-LC retention time was determined as 723 s. In turn, `COc1cccc(NC(=O)[C@H]2[C@@H](c3cc(OC)c(OC)c(OC)c3)c3cc4c(cc3[C@@H](O)[C@@H]2CO)OCO4)c1` had an RP-LC retention time of 704 s. `Cc1ccc(OCC(=O)N2CCC(c3noc(-c4cnccn4)n3)C2)cc1` (stereo unspecified) yielded an RP-LC retention time of 754 s. As to `CCC(NC(=O)c1cn(C)c2ncccc12)c1cccs1` (stereo unspecified), the RP-LC retention time was 800 s. Regarding `CC(=O)Nc1nc2ccc(CC(=O)NCCc3c[nH]c4ccc(Cl)cc34)cc2s1`, the RP-LC retention time was found to be 747 s. Then `COc1ccc2c(c1)OC1(C)CC2C(S(=O)(=O)c2ccc(C)cc2)C(=O)N1` (stereo unspecified), with 877 s; and `CC(C)(C)C(=O)Oc1ccc(S(=O)(=O)Nc2ccccc2C(=O)NCC(=O)O)cc1`, with 961 s; and `CCc1ccc(NC(=O)c2c(C)oc3nc(C)nc(N4CCCC4)c23)cc1`, with 830 s. As for `CC(=O)N1CCN(C(=O)c2ccc(O)cc2)CC1`, the RP-LC retention time was determined as 515 s.

For `Cc1ccc2nc(Cl)cc(=O)n2c1`, the RP-LC retention time was 740 s. Compound `O=C(Nc1ncccn1)c1c[nH]c2c(Cl)cccc2c1=O` displayed an RP-LC retention time of 617 s. `O=C(NCc1[nH]nc2ccccc12)c1cccc2[nH]ccc12` came in with an RP-LC retention time of 657 s.

As for `Cn1c(=O)c(N2CCCC(C(=O)N3CCN(Cc4ccc5c(c4)OCO5)CC3)C2)nc2ccccc21` (stereo unspecified), the RP-LC retention time turned out to be 674 s.

`CCc1ccc(-c2nc3sc(C(=O)NC)c(C)n3c2NCCOC)cc1` had an RP-LC retention time of 754 s. For `Cc1cccc(NC(=O)Cn2nc(N3CCCC(C)C3)c3ccccc3c2=O)c1` (stereo unspecified), the RP-LC retention time was 1090 s. Then `CCOc1ccc(-c2[nH]ncc2CN2C[C@@H]3CCN(S(C)(=O)=O)C[C@]3(CF)C2)cc1`, with 661 s. For `NC(=O)CSc1nnc(N2CCN(C(=O)c3cc4ccccc4o3)CC2)s1`, the RP-LC retention time amounted to 635 s.

As for `COc1ccccc1-c1nc(-c2cn(Cc3ccc(F)cc3)nn2)no1`, the RP-LC retention time was found to be 927 s. As for `COCCN1C(=O)Cc2ccccc2C1C(=O)N1CCN(c2ccccn2)CC1` (stereo unspecified), the RP-LC retention time was 581 s. For the compound `CCOC(=O)C1=C(CNc2ccc(F)cc2)NC(=O)NC1c1ccccc1` (stereo unspecified), the RP-LC retention time was 868 s. Take `CCN(CC)c1nc2cc(C(=O)OC)ccc2c(=O)n1-c1ccc(C)cc1`: the RP-LC retention time turned out to be 1210 s. As to `O=S(=O)(c1ccccc1)N1CCCC(c2nnnn2-c2ccccc2)C1` (stereo unspecified), the RP-LC retention time stood at 928 s. Take `COc1ccc(S(=O)(=O)N2CCCCC2CC(=O)Nc2ncccn2)cc1` (stereo unspecified): the RP-LC retention time was 647 s. `CCc1nnc(-c2cccn2CC(=O)NCc2cccc(Br)c2)o1`: the RP-LC retention time is 835 s.

On to `CCc1ccc(C2=Nc3cccnc3N(CC(=O)Nc3ccc(C(C)=O)cc3)C(=O)C2)cc1`, for which the RP-LC retention time turned out to be 972 s. In turn, `CCN(Cc1ccccc1)C(=O)c1noc2c1CCCC2` registered an RP-LC retention time of 1010 s. The compound `Cc1ccc(S(=O)(=O)NCC2CN(CC3CC3)CC23CCCCC3)c(C)c1` (stereo unspecified) registered an RP-LC retention time of 767 s. `O=C(Nc1cccc(-c2nnc3n2CCCC3)c1)c1ccco1`: the RP-LC retention time stood at 640 s. In the case of `CCN1CCN(C(=O)C2CCCN(c3ncnc4c3nc3n4CCCCC3)C2)CC1` (stereo unspecified), the RP-LC retention time was found to be 575 s. To `CCc1ccc(NC(=O)CN2CCc3[nH]c4c(OC)ccc(Cl)c4c(=O)c3C2)cc1` belongs 661 s; to `O=C(c1ccc2ccccc2n1)N1CCC(OCC2CC2)C1` (stereo unspecified), 832 s. As to `CCOC(=O)CNC(=O)NCc1ccc2ncccc2c1`, the RP-LC retention time was determined as 596 s. Then `CC(C)CCC(=O)N1CCN(c2nc(CN3CCOCC3)cs2)CC1`, with 624 s; and `CCC(NC(=O)c1cn2ccc(C)cc2n1)c1ccc(OC)cc1` (stereo unspecified), with 707 s; and `Oc1ccc(Nc2nc(-c3ccccc3)cs2)cc1`, with 818 s.

`Cc1ccc(-c2ncccc2CNS(=O)(=O)c2ccc(Br)s2)cc1`: the RP-LC retention time is 786 s. Consider `COc1ccc(Cl)cc1NC(=O)C1CCCN(S(=O)(=O)c2cc(-c3noc(C)n3)cs2)C1` (stereo unspecified), for which the RP-LC retention time was 1080 s.
